From patent publication US10385070B2, “Chroman-spirocyclic piperidine amides as modulators of ion channels” (VERTEX PHARMACEUTICALS INCORPORATED, priority 2011, dated 2019)

Molecular target: human NaV subtype, like NaV 1.7 (Homo sapiens, UniProt Q15858)
Test: E-VIPR optical membrane potential assay with electrical stimulation
Type: cell-based
Conditions: active against one or more sodium channels; assay and NaV subtype not specified for Table 3; read-out: IC50 Binned Activity Data
Description: Assays for Detecting and Measuring NaV Inhibition Properties of Compound E-VIPR Optical Membrane Potential Assay Method with Electrical Stimulation
Sodium channels are voltage-dependent proteins that can be activated by inducing membrane voltage changes by applying electric fields. The electrical stimulation instrument and methods of use are described in Ion Channel Assay Methods PCT/US01/21652, herein incorporated by reference and are referred to as E-VIPR. The instrument comprises a microtiter plate handler, an optical system for exciting the coumarin dye while simultaneously recording the coumarin and oxonol emissions, a waveform generator, a current- or voltage-controlled amplifier, and a device for inserting electrodes in well. Under integrated computer control, this instrument passes user-programmed electrical stimulus protocols to cells within the wells of the microtiter plate.
24 hours before the assay on E-VIPR, HEK cells expressing human NaV subtype, like NaV 1.7, are seeded in 384-well poly-lysine coated plates at 15,000-20,000 cells per well. Other subtypes are performed in an analogous mode in a cell line expressing the NaV of interest. HEK cells are grown in media (exact composition is specific to each cell type and NaV subtype) supplemented with 10% FBS (Fetal Bovine Serum, qualified; GibcoBRL #16140-071) and 1% Pen-Strep (Penicillin-Streptomycin; GibcoBRL #15140-122). Cells are grown in vented cap flasks, in 90% humidity and 10% CO2, to 100% confluence. They are usually split by trypsinization 1:10 or 1:20, depending on scheduling needs, and grown for 2-3 days before the next split.
100 mg/mL Pluronic F-127 (Sigma #P2443), in dry DMSO
Compound Plates: 384-well round bottom plate, e.g. Corning 384-well Polypropylene Round Bottom #3656
Cell Plates: 384-well tissue culture treated plate, e.g. Greiner #781091-1B
Bath1 buffer. Glucose 10 mM (1.8 g/L), Magnesium Chloride (Anhydrous), 1 mM (0.095 g/L), Calcium Chloride, 2 mM (0.222 g/L), HEPES 10 mM (2.38 g/L), Potassium Chloride, 4.5 mM (0.335 g/L), Sodium Chloride 160 mM (9.35 g/L).
Hexyl Dye Solution: Bath1 Buffer+0.5% β-cyclodextrin (make this prior to use, Sigma #C4767), 8 μM CC2-DMPE+2.5 μM DiSBAC6(3). To make the solution Add volume of 10% Pluronic F127 stock equal to volumes of CC2-DMPE+DiSBAC6(3). The order of preparation is first mix Pluronic and CC2-DMPE, then add DiSBAC6(3) while vortexing, then add Bath1+β-Cyclodextrin.
1) Pre-spot compounds (in neat DMSO) into compound plates. Vehicle control (neat DMSO), the positive control (20 mM DMSO stock tetracaine, 125 μM final in assay) and test compounds are added to each well at 160× desired final concentration in neat DMSO. Final compound plate volume will be 80 μL (80-fold intermediate dilution from 1 μL DMSO spot; 160-fold final dilution after transfer to cell plate). Final DMSO concentration for all wells in assay is 0.625%.
2) Prepare Hexyl Dye Solution.
3) Prepare cell plates. On the day of the assay, medium is aspirated and cells are washed three times with 100 μL of Bath1 Solution, maintaining 25 μL residual volume in each well.
4) Dispense 25 μL per well of Hexyl Dye Solution into cell plates. Incubate for 20-35 minutes at room temp or ambient conditions.
5) Dispense 80 μL per well of Bath1 into compound plates. Acid Yellow-17 (1 mM) is added and Potassium Chloride can be altered from 4.5 to 20 mM depending on the NaV subtype and assay sensitivity.
6) Wash cell plates three times with 100 μL per well of Bath1, leaving 25 μL of residual volume. Then transfer 25 uL per well from Compound Plates to Cell Plates. Incubate for 20-35 minutes at room temp/ambient condition
7) Read Plate on E-VIPR. Use the current-controlled amplifier to deliver stimulation wave pulses for typically 9 seconds and a scan rate of 400 Hz. A pre-stimulus recording is performed for 0.5 seconds to obtain the un-stimulated intensities baseline. […]

Chain of human NaV subtype, like NaV 1.7 (Q15858 whole entry): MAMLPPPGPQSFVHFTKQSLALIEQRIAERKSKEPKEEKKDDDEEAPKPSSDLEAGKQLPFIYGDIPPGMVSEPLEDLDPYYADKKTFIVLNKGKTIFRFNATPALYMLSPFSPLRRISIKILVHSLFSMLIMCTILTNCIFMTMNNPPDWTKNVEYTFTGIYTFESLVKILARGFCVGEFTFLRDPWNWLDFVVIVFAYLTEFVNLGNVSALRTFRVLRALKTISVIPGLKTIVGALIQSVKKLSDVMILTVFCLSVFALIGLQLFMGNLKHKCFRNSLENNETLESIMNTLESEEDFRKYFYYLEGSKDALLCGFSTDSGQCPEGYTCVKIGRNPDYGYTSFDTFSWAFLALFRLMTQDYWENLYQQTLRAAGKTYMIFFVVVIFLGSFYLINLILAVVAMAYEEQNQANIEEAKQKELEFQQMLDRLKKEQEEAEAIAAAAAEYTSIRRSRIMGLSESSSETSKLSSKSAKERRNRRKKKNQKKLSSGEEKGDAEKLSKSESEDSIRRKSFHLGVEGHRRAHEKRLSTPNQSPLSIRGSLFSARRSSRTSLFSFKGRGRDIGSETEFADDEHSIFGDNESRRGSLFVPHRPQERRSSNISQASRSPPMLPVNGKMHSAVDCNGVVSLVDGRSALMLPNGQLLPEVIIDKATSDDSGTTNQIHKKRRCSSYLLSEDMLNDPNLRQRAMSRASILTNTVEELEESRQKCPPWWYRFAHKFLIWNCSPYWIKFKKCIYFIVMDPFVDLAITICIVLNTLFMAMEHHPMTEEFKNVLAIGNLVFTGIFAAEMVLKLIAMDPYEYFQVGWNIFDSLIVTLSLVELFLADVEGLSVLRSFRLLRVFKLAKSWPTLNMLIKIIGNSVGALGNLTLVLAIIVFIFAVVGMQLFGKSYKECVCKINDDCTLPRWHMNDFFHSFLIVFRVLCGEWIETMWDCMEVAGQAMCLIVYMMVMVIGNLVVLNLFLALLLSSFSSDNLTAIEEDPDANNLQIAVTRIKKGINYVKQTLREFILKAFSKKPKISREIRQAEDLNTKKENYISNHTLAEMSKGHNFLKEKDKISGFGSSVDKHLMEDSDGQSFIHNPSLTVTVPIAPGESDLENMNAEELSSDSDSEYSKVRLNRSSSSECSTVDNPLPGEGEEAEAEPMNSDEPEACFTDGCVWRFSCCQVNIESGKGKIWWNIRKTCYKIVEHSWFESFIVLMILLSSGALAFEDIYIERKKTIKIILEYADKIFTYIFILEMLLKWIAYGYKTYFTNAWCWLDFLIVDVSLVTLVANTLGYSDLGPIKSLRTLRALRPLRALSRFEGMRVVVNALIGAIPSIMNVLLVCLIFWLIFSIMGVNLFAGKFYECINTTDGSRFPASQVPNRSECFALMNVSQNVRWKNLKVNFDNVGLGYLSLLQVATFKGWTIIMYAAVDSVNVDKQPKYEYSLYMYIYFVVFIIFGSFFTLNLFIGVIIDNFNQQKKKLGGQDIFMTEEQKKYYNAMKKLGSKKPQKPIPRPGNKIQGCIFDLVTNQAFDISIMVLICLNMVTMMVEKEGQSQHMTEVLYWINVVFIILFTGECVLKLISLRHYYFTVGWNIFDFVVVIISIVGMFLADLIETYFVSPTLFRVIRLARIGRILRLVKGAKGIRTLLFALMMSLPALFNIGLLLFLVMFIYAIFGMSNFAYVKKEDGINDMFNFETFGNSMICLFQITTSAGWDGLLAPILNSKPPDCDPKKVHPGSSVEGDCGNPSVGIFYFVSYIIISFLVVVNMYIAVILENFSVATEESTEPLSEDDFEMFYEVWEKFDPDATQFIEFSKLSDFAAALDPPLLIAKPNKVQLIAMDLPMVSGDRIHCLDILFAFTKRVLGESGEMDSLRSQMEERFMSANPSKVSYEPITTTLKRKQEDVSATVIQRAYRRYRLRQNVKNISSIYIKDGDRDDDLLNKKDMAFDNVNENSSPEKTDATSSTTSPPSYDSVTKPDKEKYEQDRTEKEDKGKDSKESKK

IC50, > 5000 nM:
COc1cc(C(=O)N2CCC3(CC2)CC(OC)c2ccccc2S3(=O)=O)ccc1OC(C)C (stereo not shown) [Compound 109]
CC(C)O[C@@H]1CC2(CCN(C(=O)c3ccc(N4CC(S(C)(=O)=O)C4)cn3)CC2)Oc2ccc(F)cc21 [Compound 103]
Cc1nc(C(=O)N2CCC3(CC2)C[C@@H](OC(C)C)c2cc(F)ccc2O3)ccc1S(=O)(=O)C(C)C [Compound 101]

IC50, ≤ 2000 nM:
CC(C)O[C@@H]1CC2(CCN(C(=O)c3ccc(S(=O)(=O)CC4CCC4)cn3)CC2)Oc2ccc(F)cc21 [Compound 58]
CC(C)OC1CC2(CCN(C(=O)c3ccc(S(=O)(=O)C(C)C)cc3)CC2)Oc2ccccc21 (stereo not shown) [Compound 119]
CCO[C@@H]1CC2(CCN(C(=O)c3ccc(S(=O)(=O)CC(C)C)cc3)CC2)Oc2ccc(F)cc21 [Compound 5]
CC(C)O[C@@H]1CC2(CCN(C(=O)c3ccc(C(C)(C)O)c(F)c3)CC2)Oc2ccccc21 [Compound 31]
CC(C)O[C@@H]1CC2(CCN(C(=O)c3cccc4cccnc34)CC2)Oc2ccccc21 [Compound 14]
CC(C)O[C@@H]1CC2(CCN(C(=O)c3ccc(S(=O)(=O)C4CC4)cc3)CC2)Oc2ccc(F)cc21 [Compound 82]
CC(C)O[C@@H]1CC2(CCN(C(=O)c3ccc(NS(=O)(=O)C(C)C)cc3)CC2)Oc2ccc(F)cc21 [Compound 19]
CC(C)O[C@@H]1CC2(CCN(C(=O)c3ccc(N4CCOCC4)cn3)CC2)Oc2ccc(F)cc21 [Compound 52]
CC(C)O[C@@H]1CC2(CCN(C(=O)c3ccc(NC4(C)COC4)cn3)CC2)Oc2ccc(F)cc21 [Compound 1]
COc1cc(C(=O)N2CCC3(CC2)C[C@@H](OC(C)C)c2cc(F)ccc2O3)ccc1OCCO [Compound 117]
COc1cc(C(=O)N2CCC3(CC2)C[C@H](OC(C)C)c2ccccc2O3)ccc1OC(C)C [Compound 171]
CC(C)O[C@@H]1CC2(CCN(C(=O)c3ccc(S(=O)(=O)C(C)C)c(C#N)c3)CC2)Oc2ccc(F)cc21 [Compound 22]
CCOC1CC2(CCN(C(=O)c3ccc(OC(C)C)c(OC)c3)CC2)S(=O)(=O)c2ccccc21 (stereo not shown) [Compound 24]
COCOC1=Cc2ccccc2OC12CCN(C(=O)c1ccc(OC(C)C)c(OC)c1)CC2 [Compound 44]
CC[C@@H](C)Nc1ccc(C(=O)N2CCC3(CC2)C[C@@H](OC(C)C)c2cc(F)ccc2O3)nc1 [Compound 66]
CCOc1ccc(C(=O)N2CCC3(CC2)C[C@@H](OC(C)C)c2ccccc2O3)cc1F [Compound 125]
COc1cc(C(=O)N2CCC3(CC2)CC(COCC(F)F)c2ccccc2O3)ccc1OC(C)C (stereo not shown) [Compound 23]
CC(C)O[C@@H]1CC2(CCN(C(=O)c3ccc(C(C)(C)O)c(F)c3)CC2)Oc2ccc(F)cc21 [Compound 48]
COc1cc(C(=O)N2CCC3(CC2)Oc2ccccc2C(OC(C)C)C3C)ccc1OC(C)C (stereo not shown) [Compound 94]
Cc1cc(C(=O)N2CCC3(CC2)C[C@H](OC(C)C)c2ccccc2O3)ccc1C(C)(C)O [Compound 26]
COc1cc(C(=O)N2CCC3(CC2)C[C@@H](OC(C)C)c2ccccc2O3)ccc1C(C)(C)O [Compound 57]
Cc1cc(C(=O)N2CCC3(CC2)CC(O)c2c(F)cccc2O3)ccc1OC(C)C (stereo not shown) [Compound 138]
CCC1COCCN1c1ccc(C(=O)N2CCC3(CC2)C[C@@H](OC(C)C)c2cc(F)ccc2O3)nc1 (stereo partly shown) [Compound 93]
COc1cc(C(=O)N2CCC3(CC2)C[C@H](OC(C)C)c2ccccc2O3)ccc1OCCCO [Compound 106]
COC1CCN(c2ccc(C(=O)N3CCC4(CC3)C[C@@H](OC(C)C)c3cc(F)ccc3O4)nc2)CC1 [Compound 41]
C=CCOC1CC2(CCN(C(=O)c3ccc(OC(C)C)c(OC)c3)CC2)Oc2ccccc21 (stereo not shown) [Compound 21]
COc1cc(C(=O)N2CCC3(CC2)CC(OC(C)C)c2ccccc2O3)ccc1C(C)(C)C (stereo not shown) [Compound 60]
CC(C)OCC1CC2(CCN(C(=O)c3ccc(C(C)(C)O)cc3)CC2)Oc2ccccc21 (stereo not shown) [Compound 35]
COc1cc(C(=O)N2CCC3(CC2)C[C@H](OC(C)C)c2ccccc2O3)ccc1C(C)(C)O [Compound 166]
COc1cc(C(=O)N2CCC3(CC2)CC(Cn2cccn2)c2ccccc2O3)ccc1OC(C)C (stereo not shown) [Compound 143]
Cc1cc(C(=O)N2CCC3(CC2)CC(OC(C)C)c2ccccc2O3)ccc1OC(C)C (stereo not shown) [Compound 141]
COc1cc(C(=O)N2CCC3(CC2)CC(Oc2cncc(C#N)c2)c2ccccc2O3)ccc1OC(C)C (stereo not shown) [Compound 3]
COc1cc(C(=O)N2CCC3(CC2)CC(OCc2cccnc2)c2ccccc2O3)ccc1OC(C)C (stereo not shown) [Compound 105]
COCC1CC2(CCN(C(=O)c3ccc(OC(C)C)c(OC)c3)CC2)Oc2ccccc21 (stereo not shown) [Compound 168]
COc1ccc(C(=O)N2CCC3(CC2)CC(c2ccccc2)c2ccccc2O3)cc1OC (stereo not shown) [Compound 18]
CC(C)OCC1CC2(CCN(C(=O)c3ccc(OC(C)C)c(CO)c3)CC2)Oc2ccccc21 (stereo not shown) [Compound 108]
CC(C)O[C@@H]1CC2(CCN(C(=O)c3ccc(N4CCC[C@H]4C)cn3)CC2)Oc2ccc(F)cc21 [Compound 75]
CC(C)O[C@@H]1CC2(CCN(C(=O)c3ccc(S(=O)(=O)C(F)(F)F)cc3)CC2)Oc2ccc(F)cc21 [Compound 7]
COc1nc(C)ccc1C(=O)N1CCC2(CC1)C[C@@H](OC(C)C)c1ccccc1O2 [Compound 69]
Cc1cc(C(=O)N2CCC3(CC2)CC(OC(C)C)c2cccc(F)c2O3)ccc1S(=O)(=O)C(C)C (stereo not shown) [Compound 90]
CC(C)Oc1ccc(C(=O)N2CCC3(CC2)C[C@@H](OC(C)C)c2cc(F)ccc2O3)c(OC(F)F)c1 [Compound 55]
COc1cc(C(=O)N2CCC3(CC2)Oc2ccccc2CC3OC(C)C)ccc1OC(C)C (stereo not shown) [Compound 51]
COc1cc(C(=O)N2CCC3(CC2)C[C@@H](O)c2cc(F)ccc2O3)ccc1OC(C)C [Compound 98]
Cc1cc(C(=O)N2CCC3(CC2)CC(OC(C)C)c2cc(C#N)ccc2O3)ccc1C(C)(C)O (stereo not shown) [Compound 43]
CC(C)Oc1ccc(C(=O)N2CCC3(CC2)CC(OC(C)C)c2ccccc2S3(=O)=O)cc1 (stereo not shown) [Compound 99]
CC(C)O[C@@H]1CC2(CCN(C(=O)c3ccc(NC(C)(C)C)cn3)CC2)Oc2ccc(F)cc21 [Compound 174]

IC50, 2000 to 5000 nM:
CC(C)O[C@H]1CC2(CCN(C(=O)c3ccc(C(C)(C)O)cc3)CC2)Oc2ccccc21 [Compound 115]
Cc1cc(C(=O)N2CCC3(CC2)CC(OC(C)C)c2cnccc2O3)ccc1OC(C)C (stereo not shown) [Compound 89]
CC(C)O[C@@H]1CC2(CCN(C(=O)c3ccc4[nH]ncc4c3)CC2)Oc2ccccc21 [Compound 28]
